Measurements: patent US20070167353A1, “PRODRUG COMPOSITION” (priority 2003, published 2007)
pIC50: −log10 of the molar value.

How the values were obtained:
[1] = target: T1, biphenyl hydrolase-like enzyme (BPHL) (Homo sapiens, UniProt Q86WA6); format: biochemical
T1 sequence (Q86WA6 38-291): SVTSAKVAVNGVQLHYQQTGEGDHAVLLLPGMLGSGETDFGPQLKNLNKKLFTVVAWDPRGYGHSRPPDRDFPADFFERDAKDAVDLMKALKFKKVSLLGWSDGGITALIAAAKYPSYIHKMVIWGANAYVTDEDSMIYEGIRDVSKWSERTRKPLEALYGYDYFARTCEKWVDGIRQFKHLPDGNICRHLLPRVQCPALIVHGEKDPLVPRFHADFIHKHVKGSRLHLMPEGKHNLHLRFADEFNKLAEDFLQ

[2] = target: T2, HPEPT1 (Homo sapiens, UniProt P46059); details: for Uptake (hPepT1): HeLa cells overexpressing HPEPT1, 50 micromolar, pH 6.0, 45 minutes; for hPepT1/Control: ratio of uptake in hPepT1 cells versus control cells
T2 sequence (P46059 1-708): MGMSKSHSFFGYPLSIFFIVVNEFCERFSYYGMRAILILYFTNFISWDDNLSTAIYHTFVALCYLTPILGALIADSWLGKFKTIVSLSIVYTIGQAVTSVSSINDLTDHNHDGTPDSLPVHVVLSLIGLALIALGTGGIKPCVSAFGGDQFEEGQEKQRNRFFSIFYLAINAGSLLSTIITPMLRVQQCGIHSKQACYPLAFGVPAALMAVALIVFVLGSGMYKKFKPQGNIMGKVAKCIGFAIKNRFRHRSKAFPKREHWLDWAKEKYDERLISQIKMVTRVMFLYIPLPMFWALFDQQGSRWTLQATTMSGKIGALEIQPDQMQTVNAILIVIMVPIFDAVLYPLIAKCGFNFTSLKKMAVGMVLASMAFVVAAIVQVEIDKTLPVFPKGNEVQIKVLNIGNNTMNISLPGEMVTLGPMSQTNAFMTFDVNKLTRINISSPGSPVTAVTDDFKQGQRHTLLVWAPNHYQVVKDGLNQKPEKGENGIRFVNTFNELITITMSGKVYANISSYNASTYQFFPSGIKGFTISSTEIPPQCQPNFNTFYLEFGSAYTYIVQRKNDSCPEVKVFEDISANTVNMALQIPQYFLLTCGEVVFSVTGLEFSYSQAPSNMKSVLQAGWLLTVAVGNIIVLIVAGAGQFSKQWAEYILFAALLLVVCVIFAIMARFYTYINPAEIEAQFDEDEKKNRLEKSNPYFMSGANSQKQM

[3] = target: T2, HPEPT1; assay: Inhibition of radiolabelled Gly-Sar uptake in DC5 cells overexpressing HPEPT1; format: cell-based; design: expressed in transfected cells; host or cells: HeLa cells overexpressing hPEPT1 (called 'HPEPT1 infected cells'); details: inhibition of Gly-Sar uptake, DC5 cells overexpressing HPEPT1, 10 min, 37° C.; read-out: DC5 IC50
Description: Amino acid prodrugs are tested for their interaction with the dipeptide transporter, HPEPT1, using tissue culture cells that are engineered to overexpress HPEPT1. In this example, the cells that overexpress HPEPT1, termed DC5, are a human meduloblastoma cell line that is stably transfected with a eukaryotic expression vector encoding HPEPT1. […] DC5 cells are plated at a density of 12,000 cells/well in 96-well tissue culture plates and allowed to grow for 2 days. The cells are washed once with 200 microliters of uptake buffer and aspirated. The plates are cooled to 4° C. and 25 ul of uptake buffer containing 125 nanomoles Gly-Sar (at a specific activity of 1 microcurie/micromole) is added. The uptake buffer also contains the prodrugs to be tested at concentrations ranging from 10 micromolar to 20 millimolar. The assay is initiated by placing the plate in a shaking water bath at 37° C. and is terminated after 10 min by rapid washing with multiple changes of 4° C. phosphate buffered saline (PBS). The radioactive Gly-Sar peptide that is transported by the hpept1 is extracted from the cell layer with 200 ul of a one to one mixture of methanol and water and is counted in 4 ml of CytoScint ES™ scintillation cocktail (ICN). The data are plotted as % Gly-Sar uptake of control (no competitive substrate) versus the competitive substrate concentration. […] Typically, values that are below 10 mM indicate that the drug interacts with transporter.

[4] = test system: vaccinia virus; assay: microbe, parasite or virus in culture; format: cell-based; details: 2′-deoxycoformycin alone at 1 micromolar
[5] = target: T3, human dipeptide transporter, hPept1 (Homo sapiens, UniProt P46059)
T3 sequence (P46059 1-708): T2 sequence (P46059 1-708)

Row | SMILES | % of Control (VACV) [1] [%] | Uptake (hPepT1) [2] [nmole/mg/45 min] | hPepT1/Control [2] | pIC50 [3] | effect on virus replication [4] | hPepT1/Control [5]
1 | CC(C)[C@H](N)C(=O)OC[C@H]1O[C@@H](n2cc(F)c(=O)[nH]c2=O)C[C@@H]1O [5′-O-valyl-Floxuridine] | 91.1 | 3.42 ± 0.09 | 19.24 | 2.93 |  | 
2 | NC(Cc1ccccc1)C(=O)O[C@H]1C[C@H](n2cc(F)c(=O)[nH]c2=O)O[C@@H]1CO (stereo partly drawn) [3′-O-phenylalanyl-Floxuridine] | 24.4 | 0.83 ± 0.19 | 2.56 | 2.46 |  | 
3 | CC(C)C(N)C(=O)OC[C@H]1O[C@@H](n2cc(F)c(=O)[nH]c2=O)C[C@@H]1OC(=O)C(N)C(C)C (stereo partly drawn) [3′,5′-di-O-valyl-Floxuridine] | 1.7 | 2.78 ± 0.37 | 5.18 | 2.80 |  | 
4 | NC(CC(=O)O)C(=O)OCC1OC(n2cc(F)c(=O)[nH]c2=O)CC1O (stereo not drawn) [5′-O-aspartyl-Floxuridine] | 2.3 |  |  | 2.08 |  | 
5 | OC[C@H]1O[C@@H](n2cnc3c2N=CNC[C@H]3O)C[C@@H]1O [2′-deoxycoformycin, reference compound] |  |  |  |  | no effect on virus replication | 
6 | NC(CC(=O)O)C(=O)OC1CC(n2cc(F)c(=O)[nH]c2=O)OC1CO (stereo not drawn) [3′-O-aspartyl-Floxuridine] | 2.0 |  |  | 1.98 |  | 
7 | N[C@@H](Cc1ccccc1)C(=O)OC[C@H]1O[C@@H](n2cc(F)c(=O)[nH]c2=O)C[C@@H]1O [5′-O-phenylalanyl-Floxuridine] | 52.8 | 1.58 ± 0.20 | 12.34 | 2.43 |  | 
8 | C[C@H](N)C(=O)NCC(=O)OC[C@H]1O[C@@H](n2cnc3c(N)ncnc32)[C@@H](O)[C@@H]1O [5′-O-L-alagly Ara A] |  |  |  |  |  | 1.48
9 | CC(C)[C@H](N)C(=O)O[C@H]1C[C@H](n2cc(F)c(=O)[nH]c2=O)O[C@@H]1CO [3′-O-valyl-Floxuridine] | 3.3 | 1.35 ± 0.13 | 1.03 | 3.01 |  | 
10 | N[C@@H](Cc1ccccc1)C(=O)OC[C@H]1O[C@@H](n2cc(F)c(=O)[nH]c2=O)C[C@@H]1OC(=O)[C@@H](N)Cc1ccccc1 [3′,5′-di-O-phenylalanyl-Floxuridine] | 8.9 | 2.96 ± 0.13 | 9.53 | 2.56 |  | 
